Measured values: ChEMBL document CHEMBL2176908, “Structure-aided design of novel inhibitors of HIV protease based on a benzodiazepine scaffold” (J Med Chem, 2012)
The source made the active and inactive calls. No cut-off for these calls is given here.

Key:
Protease [1] = molecular target: T1, Protease (Human immunodeficiency virus 1, UniProt Q9YQ12); experiment: Inhibition of HIV1 protease by spectrophotometric assay
Protease [2] = molecular target: T1, Protease; experiment: Inhibition of HIV1 protease by double-reciprocal Lineweaver-Burk plot; conditions: read-out: Ki(app)
[3] = molecular target: Cathepsin D (Homo sapiens) (UniProt P07339); experiment: Inhibition of human cathepsin D spectrofluorometry
Cathepsin D (Homo sapiens), sequence (P07339 65-162 limits assumed): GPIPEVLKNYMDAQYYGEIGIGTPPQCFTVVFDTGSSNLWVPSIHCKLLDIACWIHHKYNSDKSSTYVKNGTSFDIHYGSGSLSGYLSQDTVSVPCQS
Cathepsin D (Homo sapiens), sequence (P07339 169-412 limits assumed): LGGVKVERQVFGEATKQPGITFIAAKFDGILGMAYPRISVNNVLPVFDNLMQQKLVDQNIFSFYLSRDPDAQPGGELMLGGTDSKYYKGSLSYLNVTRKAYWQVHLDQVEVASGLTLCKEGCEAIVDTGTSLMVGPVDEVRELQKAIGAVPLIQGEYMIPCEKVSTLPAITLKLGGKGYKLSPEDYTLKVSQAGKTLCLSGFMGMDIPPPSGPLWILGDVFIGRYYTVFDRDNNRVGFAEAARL

Papain (Carica papaya) = molecular target: T2, Papain (Carica papaya) (UniProt P00784); experiment: Inhibition of papaya papain by spectrofluorometry
T2 sequence (whole entry): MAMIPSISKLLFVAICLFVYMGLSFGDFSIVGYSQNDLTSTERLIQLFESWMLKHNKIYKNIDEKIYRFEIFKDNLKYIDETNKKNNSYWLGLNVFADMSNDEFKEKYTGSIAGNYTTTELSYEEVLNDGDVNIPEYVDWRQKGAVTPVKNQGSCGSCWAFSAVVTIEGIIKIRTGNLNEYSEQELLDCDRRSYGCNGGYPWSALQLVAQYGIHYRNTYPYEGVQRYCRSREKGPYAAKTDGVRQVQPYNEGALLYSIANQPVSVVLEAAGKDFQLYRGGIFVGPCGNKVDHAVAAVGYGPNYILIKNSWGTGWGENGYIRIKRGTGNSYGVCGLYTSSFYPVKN

T1 sequence (Q9YQ12 whole entry): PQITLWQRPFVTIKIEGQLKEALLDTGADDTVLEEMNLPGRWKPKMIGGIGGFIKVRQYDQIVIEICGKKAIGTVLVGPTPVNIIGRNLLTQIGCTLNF

Row | Structure (SMILES) | IC50 (Protease [1]) [nM] | Ki (Protease [2]) [nM] | inhibition [3] | inhibition (Papain (Carica papaya))
1 | CC1(C)CC(=O)C2=C(C1)Nc1ccccc1N(C(=O)C(=O)N1c3ccccc3NC3=C(C(=O)CC(C)(C)C3)[C@H]1c1ccccc1)[C@H]2c1ccccc1 | > 1000 | ≤ 12 |  | 
2 | O=C1CC(c2ccccc2)CC2=C1C(c1ccccc1)Nc1ccccc1N2 (mixture of isomers) | 20000 | ≤ 12 |  | 
3 | COc1cc([C@@H]2Nc3ccccc3NC3=C2C(=O)C[C@@H](c2ccccc2)C3)cc(Cl)c1O (mixture of isomers) | 4300 | ≤ 12 |  | 
4 | CC1(C)CC(=O)C2=C(C1)Nc1ccccc1N(C(=O)C(=O)N1c3ccccc3NC3=C(C(=O)CC(C)(C)C3)C1c1ccccc1)C2c1ccccc1 (mixture of isomers; 5a) [listing 1 of 2 here] | 30 |  |  | 
5 | CC1(C)CC(=O)C2=C(C1)Nc1ccccc1N(C(=O)C(=O)N1c3ccccc3NC3=C(C(=O)CC(C)(C)C3)C1c1ccccc1)C2c1ccccc1 (mixture of isomers; 5a) [listing 2 of 2 here] |  |  | inactive | inactive
6 | CC1(C)CC(=O)C2=C(C1)Nc1ccccc1N(C(=O)C(=O)N1c3ccccc3NC3=C(C(=O)CC(C)(C)C3)C1c1ccccc1)C2 (racemic) | 100 | ≤ 12 |  | 
7 | CC1(C)CC(=O)C2=C(C1)Nc1ccccc1NC2c1ccccc1 (racemic) | 110000 | ≤ 12 |  | 

More lines, in order of falling IC50 (Protease [1]), values ahead:

Row | IC50 (Protease [1]) [nM] | Ki (Protease [2]) [nM] | inhibition [3] | inhibition (Papain (Carica papaya)) | Structure (SMILES)
8 | 300 | ≤ 12 |  |  | CC1(C)CC(=O)C2=C(C1)Nc1ccccc1N(C(=O)C(F)(F)C(=O)N1c3ccccc3NC3=C(C(=O)CC(C)(C)C3)C1c1ccccc1)C2c1ccccc1 (mixture of isomers)
9 | 200 | ≤ 12 |  |  | CC1(C)CC(=O)C2=C(C1)Nc1ccccc1N(C(=O)C(=O)N1CC3=C(CC(C)(C)CC3=O)Nc3ccccc31)C2
10 | 60 | ≤ 12 |  |  | O=C1CC(c2ccccc2)CC2=C1C(c1ccccc1)N(C(=O)C(=O)N1c3ccccc3NC3=C(C(=O)CC(c4ccccc4)C3)C1c1ccccc1)c1ccccc1N2 (mixture of isomers)
11 | 30 | ≤ 12 |  |  | CC1(C)CC(=O)C2=C(C1)Nc1ccccc1N(C(=O)C(=O)N1c3ccccc3NC3=C(C(=O)CC(C)(C)C3)C1c1ccccc1)C2c1ccccc1 (mixture of isomers; 5)
